Measurements: US4762846A (priority 1986, dated 1988)
Values joined by “and” are separate entries in the source; they are usually repeats but may differ in a detail not shown here. Identical values can stand only once. “Also recorded” adds a separate entry of the source. Counter-ions that a name gives are not always drawn. Like-named read-outs stand apart in the source and are kept apart here.

Tests used:
[1] = Water solubility of Metaphit salts; conditions: relative to the hydrochloride
[2] = cited from earlier work
[3] = biological target: phencyclidine receptors ([3H]PCP binding site); parameters: species or system rat
muscarinic receptors = assay type: binding, rat
[4] = biological target: benzodiazepine receptors ([3H]diazepam site); assay type: binding, rat
Phencyclidine Receptor [5] = assay type: binding, rat; conditions: for IC50: read-out: Apparent IC50
Phencyclidine Receptor [6] = assay type: binding, rat
opioid receptors = biological target: T1, opioid receptors (Rattus norvegicus, UniProt P33535); conditions: cited from earlier work
T1 construct: from tissue; host or cells: brain tissue (rat, inferred from the sister test)
T1 sequence (P33535 whole entry): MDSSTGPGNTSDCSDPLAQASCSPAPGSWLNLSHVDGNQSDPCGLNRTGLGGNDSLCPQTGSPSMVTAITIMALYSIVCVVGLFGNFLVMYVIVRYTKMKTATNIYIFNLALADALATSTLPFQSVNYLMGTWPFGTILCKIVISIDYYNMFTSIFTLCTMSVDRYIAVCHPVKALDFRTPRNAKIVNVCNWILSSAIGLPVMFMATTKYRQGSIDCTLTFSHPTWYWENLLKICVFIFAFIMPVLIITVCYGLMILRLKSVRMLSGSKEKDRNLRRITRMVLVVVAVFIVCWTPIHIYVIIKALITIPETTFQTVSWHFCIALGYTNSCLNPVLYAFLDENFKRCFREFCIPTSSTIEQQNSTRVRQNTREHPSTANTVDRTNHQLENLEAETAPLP

[7] = test system: cerebellar Purkinje neurons; conditions: local administration, denervation or antipsychotics; cited from earlier work
PCP receptors [8] = experiment: Scatchard analysis of [3H]TCP binding after treatment with affinity ligand; parameters: species or system rat
PCP receptors [9] = experiment: [3H]PCP binding (Scatchard) in brain homogenates of rats pretreated i.c.v. with Metaphit or saline; parameters: species or system rat (male Sprague-Dawley); conditions: saline-pretreated rats; mean ±S.E.

S=C=Nc1cccc(C2(N3CCCCC3)CCCCC2)c1 [methanesulfonate salt]
solubility in water [1]: considerably more soluble in water than the hydrochloride

CNC1(c2ccccc2Cl)CCCCC1=O (stereo not drawn) [Ketamine]
psychotomimetic effects relative to PCP ([2]; in vivo): psychotomimetic effects that do not occur as frequently as with PCP

c1ccc(C2(N3CCCCC3)CCCCC2)cc1 [PCP, 1-(1-phenylcyclohexyl)piperidine]
IC50 ([3]; read-out: IC50): 75 nM and 70 nM
IC50 ([3]; read-out: apparent IC50): 150 nM
IC50 (muscarinic receptors): 25000 nM
IC50 [4]: > 200000 nM
IC50 (Phencyclidine Receptor [5]): 70 nM
washout from homogenate (Phencyclidine Receptor [6]; 10 uM PCP alone): completely washed out of the homogenate
IC50 (opioid receptors): 13000 nM
duration of psychological side effects ([2]; use as anesthetic): more than 12 hours

CC(C)NC1(c2cccc(N=C=S)c2)CCCCC1 [Isopropylphit]
IC50 (Phencyclidine Receptor [5]): 2700 nM

CC(C)NC1(c2ccccc2)CCCCC1 [PCI]
IC50 ([3]; read-out: apparent IC50): 50 nM

NCCc1cc(O)c(O)cc1O [6-OHDA]
effect on PCP/PCMP-induced depressions of cerebellar Purkinje neurons [7]: completely eliminates stereospecific Purkinje cell responses to PCMP

S=C=Nc1csc(C2(N3CCCCC3)CCCCC2)c1 [Thiophit]
affinity for the PCP receptor relative to other ligands (Phencyclidine Receptor [5]): much higher affinity for the PCP receptors; also recorded: considerably higher affinity for the PCP receptor than either of the other two affinity ligands
potency relative to metaphit (Phencyclidine Receptor [5]): three times as potent as metaphit
IC50 (Phencyclidine Receptor [5]): 900 nM
Bmax ([3H]-TCP) in treated tissue (PCP receptors [8]; 10 μM affinity ligand): 700 fmol/mg protein
reduction in Bmax (PCP receptors [8]; 10 μM affinity ligand): ~30%
Kd (PCP receptors [8]; 10 μM affinity ligand, value is for [3H]-TCP (1.0 to 150 nM), read-out: Kd ([3H]-TCP) in treated tissue): 27 nM

c1ccc(C2(N3CCCCC3)CCCCC2)cc1 [[3H]-PCP]
Kd (PCP receptors [9]): 237 ± 8 nM
Non-specific binding of radioligand ([3]; [3H]-PCP): 30 % of the total binding

CCNC1(c2cccc(N=C=S)c2)CCCCC1 [Ethylphit]
IC50 (Phencyclidine Receptor [5]): 3840 nM

c1csc(C2(N3CCCCC3)CCCCC2)c1 [TCP]
potency relative to PCI [3]: twice as potent as PCI
affinity for the PCP receptor relative to PCP (Phencyclidine Receptor [5]): considerably higher affinity for the PCP receptor than PCP
IC50 (Phencyclidine Receptor [5]): 20 nM
washout from homogenate (Phencyclidine Receptor [6]): completely washed out of the homogenate

lithium
effect on PCP/PCMP-induced depressions of cerebellar Purkinje neurons [7]: strongly antagonized PCP-induced depressions

CCNC1(c2ccccc2)CCCCC1 [PCE, (1-Phenylcyclohexyl)ethylamine]
IC50 ([3]; read-out: apparent IC50): 240 nM

c1csc(C2(N3CCCCC3)CCCCC2)c1 [[3H]-TCP]
Non-specific binding of radioligand (Phencyclidine Receptor [5]): 10%
Kd (PCP receptors [8]; control tissue, [3H]-TCP 1.0 to 150 nM, read-out: Kd for control ([3H]-TCP)): 15 nM

S=C=Nc1cccc(C2(N3CCCCC3)CCCCC2)c1 [Metaphit, 1-[1-(3-isothiocyanatophenyl)cyclohexyl]piperidine]
Maximum % Alkylation by 10 uM Metaphit (muscarinic receptors): 0%
irreversible loss of QNB binding (muscarinic receptors): without a significant loss of QNB binding
Maximum % Alkylation by 10 uM Metaphit [4]: 0%
